Experimental data as given in patent US11807625B2, “Capsid inhibitors for the prevention of HIV” (Gilead Sciences, Inc., priority 2019, dated 2023).

Experiment: PK of compound of Formula (Ia) after single subcutaneous dose of solution formulations in Wistar Han rats
Assay type: in vivo
Details: male, Wistar Han, rat, plasma, sc, 50 mg/kg, SC 50 mg/kg
Experimental: Formulations containing the compound of Formula (Ia), or a pharmaceutically acceptable salt thereof, were prepared as solutions and optionally administered subcutaneously or intramuscularly to rats, rabbits, and/or dogs.
(§1) A solution of about 400 mg/mL of the compound of Formula (Ia) having 19.14 w/w % water, 40.66 w/w % PEG 300, 35.20 w/w % of a sodium salt of a compound of Formula (Ia), and 5.00% ethanol was prepared. The solution was administered subcutaneously to male Wistar Han rats at a dose level of about 50 mg/kg and dose volume of 0.125 mL/kg and the pharmacokinetic (PK) profile was determined.
as §1, with “500” for “400”, “16.64” for “19.14”, “35.36” for “40.66”, “43.00” for “35.20”, “0.1” for “0.125”
(§2) A solution of about 400 mg/mL of the compound of Formula (Ia) having 17.00 w/w % water, 36.40 w/w % PEG 300, 35.20 w/w % of a sodium salt of a compound of Formula (Ia), 5.00 w/w % ethanol, and 6.40 w/w % poloxamer 188 was prepared. The solution was administered subcutaneously to male beagle dogs at a dose level of about 12 mg/kg and male Wistar Han rats at a dose level of about 50 mg/kg. The pharmacokinetic profiles were determined, and the results for dogs are summarized in Table and Table, while the results for rats are summarized in Table and Table below.
as §2, with “500” for “400”, “14.06” for “17.00”, “30.12” for “36.40”
A solution of about 300 mg/mL of the compound of Formula (Ia) having 23.33 w/w % water, 48.99 w/w % PEG 300, 26.47 w/w % of a sodium salt of a compound of Formula (Ia), and 1.21 w/w % poloxamer 188 was prepared. The solution was administered subcutaneously to male beagle dogs at a dose level of about 6 mg/kg and male Wistar Han rats at a dose level of about 50 mg/kg. The pharmacokinetic profiles were determined, and the results for dogs are summarized in Table and Table, while the results for rats are summarized in Table and Table below.
as §2, with “18.80” for “17.00”, “40.25” for “36.40”, “34.38” for “35.20”, “1.57” for “6.40”
as §2, with “500” for “400”, “16.29” for “17.00”, “34.88” for “36.40”, “41.92” for “35.20”, “1.91” for “6.40”
A solution of about 400 mg/mL of the compound of Formula (Ia) having 20.90 w/w % water, 44.72 w/w % PEG 300, and 34.38 w/w % of a sodium salt of a compound of Formula (Ia) was prepared. […]

[1] = mean, n = 3 rats, solution R, 400 mg/mL
[2] = mean, n = 3 rats, solution S, 500 mg/mL
[3] = mean, n = 3 rats, solution V, 300 mg/mL
[4] = mean, n = 5 rats, solution T, 400 mg/mL
[5] = mean, n = 5 rats, solution U, 500 mg/mL
[6] = individual rats, solution R, 400 mg/mL
[7] = individual rats, solution S, 500 mg/mL
[8] = individual rats, solution V, 300 mg/mL
[9] = mean (rat #1 NS), solution T, 400 mg/mL
[10] = Wistar Han rats, 400 mg/mL solution AA (6.25% poloxamer 188), Mean n = 4
[11] = Wistar Han rats, 400 mg/mL solution AA (6.25% poloxamer 188), animals #1-#4

concentration at 672 h [1]: 339 nM | concentration at 672 h [2]: 296 nM | concentration at 672 h [3]: 308 nM | concentration at 672 h [4]: 298 nM | concentration at 672 h [5]: 296 nM | concentration at 840 h [6]: 295 nM | concentration at 840 h [7]: 429 nM | concentration at 840 h [8]: 285 nM | concentration at 840 h [1]: 350 nM | concentration at 840 h [2]: 300 nM | concentration at 840 h [3]: 308 nM | concentration at 840 h [4]: 215 nM | concentration at 840 h [5]: 261 nM | concentration at 1008 h [6]: 303 nM | concentration at 1008 h [1]: 354 nM | concentration at 1008 h [2]: 300 nM | concentration at 1008 h [3]: 258 nM | concentration at 1008 h [4]: 207 nM | concentration at 1008 h [5]: 284 nM | concentration at 1334 h [6]: 296 nM | concentration at 1334 h [7]: 398 nM | concentration at 1334 h [1]: 328 nM | concentration at 1334 h [2]: 300 nM | concentration at 1344 h [8]: 272 nM | concentration at 1344 h [3]: 301 nM | concentration at 1344 h [4]: 159 nM | concentration at 1344 h [5]: 226 nM | concentration at 1680 h [6]: 271 nM | concentration at 1680 h [7]: 342 nM | concentration at 1680 h [8]: 221 nM | concentration at 1680 h [9]: 145 nM | concentration at 1680 h [1]: 277 nM | concentration at 1680 h [2]: 249 nM | concentration at 1680 h [3]: 250 nM | concentration at 1680 h [5]: 198 nM | concentration at 2016 h [6]: 199 nM | concentration at 2016 h [7]: 221 nM | concentration at 2016 h [8]: 138 nM | concentration at 2016 h [9]: 140 nM | concentration at 2016 h [1]: 202 nM | concentration at 2016 h [2]: 171 nM | concentration at 2016 h [3]: 181 nM | concentration at 2016 h [5]: 174 nM | concentration at 2352 h [6]: 183 nM | concentration at 2352 h [7]: 231 nM | concentration at 2352 h [8]: 122 nM | concentration at 2352 h [9]: 117 nM | concentration at 2352 h [1]: 182 nM | concentration at 2352 h [2]: 173 nM | concentration at 2352 h [3]: 165 nM | concentration at 2352 h [5]: 167 nM | concentration at 2688 h [6]: 168 nM | concentration at 2688 h [7]: 171 nM | concentration at 2688 h [8]: 113 nM | concentration at 2688 h [9]: 162 nM | concentration at 2688 h [1]: 154 nM | concentration at 2688 h [2]: 148 nM | concentration at 2688 h [3]: 141 nM | concentration at 2688 h [5]: 108 nM | concentration at 3024 h [6]: 136 nM | concentration at 3024 h [7]: 125 nM | concentration at 3024 h [8]: 81.4 nM | concentration at 3024 h [9]: 131 nM | concentration at 3024 h [1]: 122 nM | concentration at 3024 h [2]: 108 nM | concentration at 3024 h [3]: 99.1 nM | concentration at 3024 h [5]: 102 nM | concentration at 3360 h [6]: 132 nM | concentration at 3360 h [7]: 135 nM | concentration at 3360 h [8]: 81.1 nM | concentration at 3360 h [9]: 117 nM | concentration at 3360 h [1]: 111 nM | concentration at 3360 h [2]: 110 nM | concentration at 3360 h [3]: 77.4 nM | concentration at 3360 h [5]: 88 nM | concentration at 3696 h [7]: 102 nM | concentration at 3696 h [8]: 72.2 nM | concentration at 3696 h [9]: 73.7 nM | concentration at 3696 h [1]: 94.8 nM | concentration at 3696 h [2]: 92 nM | concentration at 3696 h [3]: 68.4 nM | concentration at 3696 h [5]: 70.5 nM | concentration at 4032 h [7]: 118 nM | concentration at 4032 h [8]: 56.6 nM | concentration at 4032 h [9]: 71.5 nM | concentration at 4032 h [1]: 102 nM | concentration at 4032 h [2]: 110 nM | concentration at 4032 h [3]: 52.3 nM | concentration at 4032 h [5]: 65.7 nM | concentration at 4704 h [7]: 62.9 nM | concentration at 4704 h [8]: 35.9 nM | concentration at 4704 h [9]: 44.3 nM | concentration at 4704 h [1]: 69 nM | concentration at 4704 h [2]: 71.5 nM | concentration at 4704 h [3]: 30.2 nM | concentration at 4704 h [5]: 43.1 nM | concentration at 5376 h [9]: 34.4 nM | concentration at 5376 h [1]: 58 nM | concentration at 5376 h [2]: 58.8 nM | concentration at 5376 h [5]: 38.9 nM | concentration at 6048 h [9]: 29 nM | concentration at 6048 h [1]: 30.2 nM | concentration at 6048 h [2]: 45 nM | concentration at 6048 h [5]: 36.2 nM | concentration at 6720 h [9]: 21.5 nM | concentration at 6720 h [1]: 26.3 nM | concentration at 6720 h [2]: 37 nM | concentration at 6720 h [5]: 26.5 nM | concentration at 7392 h [1]: 16.5 nM | concentration at 7392 h [2]: 29.4 nM | concentration at 8064 h [1]: 12.3 nM | concentration at 8064 h [2]: 24.8 nM | concentration at 1 h [10]: 35.9 nM | concentration at 1 h [11]: 29 nM | concentration at 3 h [10]: 69.5 nM | concentration at 3 h [11]: 67.9 nM | concentration at 8 h [10]: 122 nM | concentration at 8 h [11]: 109 nM | concentration at 24 h [10]: 233 nM | concentration at 24 h [11]: 259 nM | concentration at 48 h [10]: 251 nM | concentration at 48 h [11]: 272 nM | concentration at 72 h [10]: 227 nM | concentration at 72 h [11]: 231 nM | concentration at 96 h [10]: 201 nM | concentration at 96 h [11]: 211 nM | concentration at 168 h (Wistar Han rats, 400 mg/mL solution AA (6.25% poloxamer 188), 168 h, Mean n = 4): 141 nM | concentration at 336 h (Wistar Han rats, 400 mg/mL solution AA (6.25% poloxamer 188), 336 h, Mean n = 4): 130 nM | concentration at 504 h (Wistar Han rats, 400 mg/mL solution AA (6.25% poloxamer 188), 504 h, Mean n = 4): 131 nM | concentration at 672 h [10]: 117 nM | concentration at 672 h [11]: 130 nM | concentration at 840 h [10]: 118 nM | concentration at 840 h [11]: 170 nM | concentration at 1008 h [10]: 103 nM | concentration at 1008 h [11]: 134 nM | concentration at 1344 h [10]: 77.1 nM | concentration at 1344 h [11]: 93 nM | concentration at 1680 h [10]: 63.8 nM
Structure (SMILES): CC(C)(C#Cc1ccc(-c2ccc(Cl)c3c(NS(C)(=O)=O)nn(CC(F)(F)F)c23)c([C@H](Cc2cc(F)cc(F)c2)NC(=O)Cn2nc(C(F)(F)F)c3c2C(F)(F)[C@@H]2C[C@H]32)n1)S(C)(=O)=O [compound of Formula (Ia)]
